Source: ChEMBL document CHEMBL2073765, “Disrupted bile acid homeostasis reveals an unexpected interaction among nuclear hormone receptors, transporters, and cytochrome P450” (J Biol Chem, 2001)

Target: Bile salt export pump (Homo sapiens, UniProt O95342)
Experiment: TP_TRANSPORTER: Western in vitro, primary human hepatocyte
Assay type: functional, cell-based
Details: hepatocytes

Chain of Bile salt export pump (O95342 whole entry): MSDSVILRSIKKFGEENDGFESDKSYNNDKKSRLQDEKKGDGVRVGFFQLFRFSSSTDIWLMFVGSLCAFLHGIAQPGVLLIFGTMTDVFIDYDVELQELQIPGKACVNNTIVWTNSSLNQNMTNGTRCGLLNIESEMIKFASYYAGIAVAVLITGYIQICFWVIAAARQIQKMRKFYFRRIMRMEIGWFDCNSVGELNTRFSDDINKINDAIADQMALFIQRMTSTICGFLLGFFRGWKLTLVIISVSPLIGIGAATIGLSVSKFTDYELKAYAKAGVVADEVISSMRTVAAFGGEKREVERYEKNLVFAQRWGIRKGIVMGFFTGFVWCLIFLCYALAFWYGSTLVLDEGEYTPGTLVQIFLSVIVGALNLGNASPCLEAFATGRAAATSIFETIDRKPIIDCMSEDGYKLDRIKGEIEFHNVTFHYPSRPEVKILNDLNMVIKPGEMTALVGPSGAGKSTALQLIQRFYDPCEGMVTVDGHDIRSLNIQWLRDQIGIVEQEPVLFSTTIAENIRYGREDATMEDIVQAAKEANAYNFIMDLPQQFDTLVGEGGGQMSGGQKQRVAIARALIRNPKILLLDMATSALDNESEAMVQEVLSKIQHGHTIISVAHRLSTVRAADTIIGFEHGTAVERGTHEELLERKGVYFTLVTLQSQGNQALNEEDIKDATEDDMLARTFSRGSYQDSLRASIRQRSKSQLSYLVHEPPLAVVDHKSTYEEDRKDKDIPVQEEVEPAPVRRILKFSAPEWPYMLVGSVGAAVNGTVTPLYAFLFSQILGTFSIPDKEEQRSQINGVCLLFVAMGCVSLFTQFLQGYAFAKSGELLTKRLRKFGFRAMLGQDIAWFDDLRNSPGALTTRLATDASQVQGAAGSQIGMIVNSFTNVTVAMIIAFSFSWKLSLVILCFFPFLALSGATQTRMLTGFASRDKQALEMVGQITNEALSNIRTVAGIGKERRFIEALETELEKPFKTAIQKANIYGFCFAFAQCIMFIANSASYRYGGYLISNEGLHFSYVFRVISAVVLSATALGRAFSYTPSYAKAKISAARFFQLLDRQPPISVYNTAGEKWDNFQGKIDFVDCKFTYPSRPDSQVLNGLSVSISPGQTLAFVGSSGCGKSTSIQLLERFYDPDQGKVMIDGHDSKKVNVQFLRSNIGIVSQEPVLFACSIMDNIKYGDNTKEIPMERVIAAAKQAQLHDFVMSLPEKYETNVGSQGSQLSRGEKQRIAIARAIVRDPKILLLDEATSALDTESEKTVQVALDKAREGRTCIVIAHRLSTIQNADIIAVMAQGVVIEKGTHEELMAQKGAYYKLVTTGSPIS

SMILES	Activity
C[C@H](CCC(=O)O)[C@H]1CC[C@H]2[C@@H]3[C@H](O)C[C@@H]4C[C@H](O)CC[C@]4(C)[C@H]3CC[C@]12C [CHENODIOL]	inducer [+]
C[C@H](CCC(=O)O)[C@H]1CC[C@H]2[C@@H]3CC[C@@H]4C[C@H](O)CC[C@]4(C)[C@H]3C[C@H](O)[C@]12C [DEOXYCHOLIC ACID]	inducer [+]
